Reference: patent US20240228490A1, “HETEROCYCLIC DERIVATIVE INHIBITOR AND PREPARATION METHOD THEREFOR AND APPLICATION THEREOF” (Shanghai Hansoh Biomedical Co., Ltd., priority 2021, published 2024)
Like-named read-outs stand apart in the source and are kept apart here.

What was measured:
[1] = PK part of PK/PD study in MDA-MB-436 subcutaneous xenograft model: plasma and tumor concentration; assay type: in vivo, BALB/c nude mice; settings: female, BALB/c nude, mouse, single oral 0.3 mg/kg
Source text: • a. […] Cells were passaged once every three days. […] The resulting suspension was placed in an ice box for later use.
• a. […] During the inoculation, the cell suspension was mixed well. […] The nude mouse was bound with the left hand. […] Inoculation started after 30 seconds. • d.
• a. Grouping: According to the growth of the tumor, when the tumor grew to a volume of 300-500 mm^3, tumor-bearing mice were selected according to the experimental design and randomly grouped (3 mice per each time point) to start the PK/PD test. • b. Fasting: All tumor-bearing mice were fasted (with free access to water) overnight (fasting >8 hours) before the administration. • c. Administration: Except for the blank control group, a single oral administration was carried out according to the time of the experimental design, and the administration volume was 10 mL/kg. • d. Sample collection: The mice were euthanized by CO2 asphyxiation according to the time of the experimental design, and the samples were collected. One plasma sample and three tumor tissue samples were collected from each animal.
Plasma collection: After the mouse was euthanized, blood was collected from the heart. The collected blood was added to a centrifuge tube containing EDTA-K2. The tube was manually inverted 3 to 4 times, placed on ice, and centrifuged at 8000 rpm at 4° C. for 5 minutes. 100 μL of the centrifuged plasma was transferred to a new labeled centrifuge tube. One aliquot of plasma was quickly freezed on dry ice, and stored in a refrigerator at −80±10° C. for PK test.
Tumor tissue collection: After the blood collection, the tumor tissue was collected. The collected tumor tissue was divided into 3 aliquots (˜0.1 g each), placed into labeled 2 mL centrifuge tubes, and stored in a refrigerator at −80±10° C. for PK or PD test.
a. Sample Process: • 1) 4 parts by weight of 20% methanol in water was added to 1 part by weight of the tumor tissue sample, and homogenized at 40 Hz for 400 seconds.

[2] = Bidirectional permeability through Caco-2 cell model; settings: human
Description: 100 μL of transport buffer (HBSS containing 10 μM test compound, 0.5% BSA, and 0.5% DMSO) was added to the administration end of A to B • b. 300 μL of transport buffer (HBSS containing 0.5% BSA) was added to the receiving end of A to B • c. 300 μL of transport buffer (HBSS containing 10 μM test compound, 0.5% BSA, and 0.5% DMSO) was added to the administration end of B to A • d. 100 μL of transport buffer (HBSS containing 0.5% BSA) was added to the receiving end of B to A • e. Incubation for 2 hours • d. Samples were taken, processed and detected by mass spectrometry.
• Instrument: liquid chromatography; • Chromatographic column: Waters XSelect HSS T3 C18 (2.1*50 mm, 2.5 μm); • Mobile phase: phase A: water containing 0.1% formic acid; phase B: acetonitrile containing 0.1% formic acid.
• Instrument: API4000 liquid chromatography-mass spectrometer; • Ion source: electrospray ionization source (ESI); • Detection method: positive ion detection; • Scan mode: multiple reaction monitoring (MRM) mode.

PARP1 enzyme = PARP1 enzyme (Homo sapiens (Human), UniProt P09874); test: Inhibitory activity on PARP1 enzyme (chemiluminescence); assay type: biochemical
Sequence of PARP1 enzyme (P09874 whole entry): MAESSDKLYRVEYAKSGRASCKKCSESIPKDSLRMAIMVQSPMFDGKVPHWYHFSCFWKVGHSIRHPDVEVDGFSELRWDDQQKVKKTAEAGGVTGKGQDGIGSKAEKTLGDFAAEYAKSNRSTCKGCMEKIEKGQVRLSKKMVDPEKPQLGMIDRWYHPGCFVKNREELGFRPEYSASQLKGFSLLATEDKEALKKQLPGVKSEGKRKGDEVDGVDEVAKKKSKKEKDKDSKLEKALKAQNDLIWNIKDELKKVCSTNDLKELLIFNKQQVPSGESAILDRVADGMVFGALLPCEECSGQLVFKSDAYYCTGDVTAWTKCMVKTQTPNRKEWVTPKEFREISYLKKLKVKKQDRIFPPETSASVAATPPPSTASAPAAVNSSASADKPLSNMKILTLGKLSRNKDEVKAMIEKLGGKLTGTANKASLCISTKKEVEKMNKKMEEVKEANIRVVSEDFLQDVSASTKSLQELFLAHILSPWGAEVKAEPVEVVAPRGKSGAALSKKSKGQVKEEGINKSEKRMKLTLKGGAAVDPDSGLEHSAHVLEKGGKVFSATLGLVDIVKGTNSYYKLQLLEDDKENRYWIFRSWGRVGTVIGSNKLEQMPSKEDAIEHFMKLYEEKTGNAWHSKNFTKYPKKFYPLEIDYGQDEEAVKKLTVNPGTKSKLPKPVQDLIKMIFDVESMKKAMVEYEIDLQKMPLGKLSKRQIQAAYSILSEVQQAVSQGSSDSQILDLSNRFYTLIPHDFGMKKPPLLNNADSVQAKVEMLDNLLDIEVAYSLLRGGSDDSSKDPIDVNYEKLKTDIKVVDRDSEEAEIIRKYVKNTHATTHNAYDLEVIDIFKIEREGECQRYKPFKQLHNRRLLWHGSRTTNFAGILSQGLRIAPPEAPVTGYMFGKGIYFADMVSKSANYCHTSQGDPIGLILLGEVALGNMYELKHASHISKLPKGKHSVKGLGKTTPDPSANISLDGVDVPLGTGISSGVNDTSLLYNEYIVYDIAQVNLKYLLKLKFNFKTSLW
Description: The inhibitory activity of the compounds on PARP1 enzyme was determined by the chemiluminescence method in the experiment. The experiment was carried out in a 384-well plate. Coating histones in a 384-well plate: 5×histone solution was diluted 5 folds with PBS, added to a 384-well ELISA plate (25 μL per well), and incubated at 4° C. overnight. […] A mixture of PARP reaction biotin-labeled substrate, activated DNA, 10×PARP buffer and water was added (12.5 μL per well). Compound solutions with different concentrations were formulated using the experimental buffer (10% DMSO aqueous solution containing 1.25 mM DTT). The final detection concentration started from 100 nM, with 3-fold dilution and 8 concentrations. The compound solutions were added to the reaction wells of the 384-well plate (2.5 μL per well). 2.5 μL of 10% DMSO aqueous solution containing 1.25 mM DTT was added to the positive control well and blank well (2.5 μL per well). […] The plate was centrifuged at 1000 rpm for 1 minute, and reacted at room temperature for 60 minutes. […] Streptavidin-HRP solution diluted 50 folds with Blocking buffer 3 was added (25 μL per well), and the plate was incubated at room temperature for 30 minutes. […] The luminescence reaction solution obtained by mixing ECL substrate A and ELISA ECL substrate B (1:1) was added (50 μL per well) for reaction. The chemiluminescence values were measured immediately with a BioTek Synergy H1 or Envision instrument.
The chemiluminescence values were measured with a BioTek Synergy H1 or Envision instrument. The inhibition rate was calculated, and the concentration and inhibition rate were fitted to a nonlinear regression curve using Graphpad Prism software to obtain the IC50 value.

[3] = system: BRCA2 Knockout DLD-1 cells; test: Inhibition of proliferation of BRCA2 Knockout DLD-1 cells (CellTiter-Glo); assay type: cell-based; settings: Homo sapiens, about 144 hours incubation
Description: BRCA2 Knockout DLD-1 cells were cultured using RPMI1640 culture medium containing 10% FBS to an appropriate cell density. The cells were collected, and adjusted to an appropriate cell concentration using the complete culture medium. The cell suspension was spread on a 96-well plate (90 μL per well), and placed in a 37° C., 5% CO2 incubator overnight. Compound solutions of different concentrations were formulated using DMSO and culture medium, and vehicle control was set up. The compound solutions were added to the 96-well plate (10 μL per well), and the plate was incubated in a 37° C., 5% CO2 incubator for about 144 hours. CellTiter-Glo solution was added, and the plate was shaken to mix evenly, and incubated in the dark for 10 to 30 minutes. The values were measured with a Synergy H1 or Envision microplate reader.
The inhibition rate was calculated using the luminescence signal value. The concentration and inhibition rate were fitted to a nonlinear regression curve using Graphpad Prism software to obtain the IC50 value.

[4] = plasma, read-out: Mean plasma concentration
[5] = tumor tissue, read-out: Mean tumor tissue concentration

Compound	IC50 (PARP1 enzyme) [nM]	IC50 [3] [nM]	further results
CCc1cc2ncc(CN3CCN(c4ccc(C(=O)NC)nc4)CC3)cc2[nH]c1=O [AZD5305, reference compound]			concentration at 1 h [1, 4]: 1460 ng/mL; concentration at 2 h [1, 4]: 1370 ng/mL; concentration at 4 h [1, 4]: 1120 ng/mL; concentration at 6 h [1, 4]: 713 ng/mL; concentration at 8 h [1, 4]: 584 ng/mL; concentration at 16 h [1, 4]: 252 ng/mL; concentration at 24 h [1, 4]: 102 ng/mL; concentration at 32 h [1, 4]: 41 ng/mL; concentration at 48 h [1, 4]: 10 ng/mL; concentration at 72 h [1, 4]: 6 ng/mL; concentration at 1 h [1, 5]: 41 ng/g; concentration at 2 h [1, 5]: 100 ng/g; concentration at 4 h [1, 5]: 131 ng/g; concentration at 6 h [1, 5]: 117 ng/g; concentration at 8 h [1, 5]: 95 ng/g; concentration at 16 h [1, 5]: 94 ng/g; concentration at 24 h [1, 5]: 61 ng/g; concentration at 32 h [1, 5]: 59 ng/g; concentration at 48 h [1, 5]: 44 ng/g; concentration at 72 h [1, 5]: 31 ng/g
CCc1cc2ncc(CN3CCC(c4ccc(C(=O)NC)nc4)CC3)cc2[nH]c1=O [Example 2, 5-(1-((7-Ethyl-6-oxo-5,6-dihydro-1,5-naphthyridin-3-yl)methyl)piperidin-4-yl)-N-methylpicolinamide]			Papp A→B at 2 h, 10 μM [2]: 9.42 ×10⁻⁶ cm/s; Papp B→A at 2 h, 10 μM [2]: 13.5 ×10⁻⁶ cm/s
CCc1cc2ncc(CN3CC=C(c4ccc(C(=O)NOC)nc4)CC3)cc2[nH]c1=O [Example 30, 1′-((7-Ethyl-6-oxo-5,6-dihydro-1,5-naphthyridin-3-yl)methyl)-N-methoxy-1′,2′,3′,6′-tetra hydro-[3,4′-bipyridine]-6-carboxamide]	1.4	3.2	
CCc1cc2c(C#N)cc(CN3CC=C(c4ccc(C(=O)NC)nc4)CC3)cc2[nH]c1=O [Example 42, 1′-((5-Cyano-3-ethyl-2-oxo-1,2-dihydroquinolin-7-yl)methyl)-N-methyl-1′,2′,3′,6′-tetrahydro-[3,4′-bipyridine]-6-carboxamide]	1.3	3	
CCc1cc2ncc(CN3CC=C(c4ncc(C)n4C)CC3)cc2[nH]c1=O [Example 53, 7-((4-(1,5-Dimethyl-1H-imidazol-2-yl)-3,6-dihydropyridin-1(2H)-yl)methyl)-3-ethyl-1,5-naphthyridin-2(1H)-one]	0.96	7.5	
CCc1cc2ncc(CN3CC=C(c4ccc(C(=O)NC)nc4Cl)CC3)cc2[nH]c1=O [Example 56, 2-Chloro-1′-((7-ethyl-6-oxo-5,6-dihydro-1,5-naphthyridin-3-yl)methyl)-N-methyl-1′,2′,3′,6′-tetrahydro-[3,4′-bipyridine]-6-carboxamide]	1.3	1	
CCc1cc2ncc(CN3CC=C(c4ccc(C(=O)NCC#N)nc4)CC3)cc2[nH]c1=O [Example 58, N-(Cyanomethyl)-1′-((7-ethyl-6-oxo-5,6-dihydro-1,5-naphthyridin-3-yl)methyl)-1′,2′,3′,6′-tetrahydro-[3,4′-bipyridine]-6-carboxamide]	0.9	2.4	
CCc1cc2ncc(CN3CC=C(c4ccc(C(=O)NC5(C#N)CC5)nc4)CC3)cc2[nH]c1=O [Example 59, N-(1-Cyanocyclopropyl)-1′-((7-ethyl-6-oxo-5,6-dihydro-1,5-naphthyridin-3-yl)methyl)-1′,2′,3′,6′-tetrahydro-[3,4′-bipyridine]-6-carboxamide]	0.8	2.7	
CCc1cc2ncc(CN3CCC(c4ccc(C(=O)NC)nc4)=C(F)C3)cc2[nH]c1=O [Example 81, 1′-((7-Ethyl-6-oxo-5,6-dihydro-1,5-naphthyridin-3-yl)methyl)-5′-fluoro-N-methyl-1′,2′,3′,6′-tetrahydro-[3,4′-bipyridine]-6-carboxamide]	0.9	1.5	
CCc1cc2ncc(CN3CC=C(c4ccc(C(=O)NCC(F)(F)F)nc4)CC3)cc2[nH]c1=O [Example 83, 1′-((7-Ethyl-6-oxo-5,6-dihydro-1,5-naphthyridin-3-yl)methyl)-N-(2,2,2-trifluoroethyl)-1′,2′,3′,6′-tetrahydro-[3,4′-bipyridine]-6-carboxamide]	1.4	1.4	
CNC(=O)c1ccc(C2=CCN(Cc3cnc4cc(C(F)(F)F)c(=O)[nH]c4c3)CC2)cn1 [Example 84, N-Methyl-1′-((6-oxo-7-(trifluoromethyl)-5,6-dihydro-1,5-naphthyridin-3-yl)methyl)-1′,2′,3′,6′-tetrahydro-[3,4′-bipyridine]-6-carboxamide]	2.7	5.1	
CCc1cc2ncc(C(C)N3CC=C(c4ccc(C(=O)NC)nc4)CC3)cc2[nH]c1=O (stereo not drawn) [Example 93, 1′-(1-(7-Ethyl-6-oxo-5,6-dihydro-1,5-naphthyridin-3-yl)ethyl)-N-methyl-1′,2′,3′,6′-tetrahydro-[3,4′-bipyridine]-6-carboxamide]	2.1	3.6	
CCc1cc2ncc(CN3CCN(c4cnc5c(NC)ncc(F)c5c4)CC3)cc2[nH]c1=O [Example 94, 3-Ethyl-7-((4-(5-fluoro-8-(methylamino)-1,7-naphthyridin-3-yl)piperazin-1-yl)methyl)-1,5-naphthyridin-2(1H)-one]		8.4	
[2H]C([2H])([2H])Nc1nccc2cc(N3CCN(Cc4cnc5cc(CC)c(=O)[nH]c5c4)CC3)cnc12 [Example 98, 3-Ethyl-7-((4-(8-((methyl-d3)amino)-1,7-naphthyridin-3-yl)piperazin-1-yl)methyl)-1,5-naphthyridin-2(1H)-one]		1.7	
CCc1cc2ncc(CN3CC=C(c4cnc5c(NC)nccc5c4)CC3)cc2[nH]c1=O [Example 102, 3-Ethyl-7-((4-(8-(methylamino)-1,7-naphthyridin-3-yl)-3,6-dihydropyridin-1(2H)-yl)methyl)-1,5-naphthyridin-2(1H)-one]		5.2	
